Measurements published in patent US20250145608A1, “KRAS DEGRADING COMPOUNDS COMPRISING ANNULATED 2-AMINO-3-CYANO THIOPHENES” (Boehringer Ingelheim Int'l GmbH Corp., priority 2021, published 2025).

Legend:
Type in all cases: cell-based
KRAS4B G12D = biological target: T1, KRAS4B G12D (Homo sapiens, UniProt P01116, G12D); assay: HiBit KRAS4B mutant spectrum degradation assay, KRAS4B G12D in GP5d cells (18 h); details: KRAS mutation G12D
T1 construct: HiBit; expressed in transfected cells; host or cells: GP5d cells (ECACC 95090715), stably transduced with lentivirus, CMV promoter
From the text: (§1) The therapeutically relevant mutant KRAS constructs (WT, G12C, G12D, G12V, G13D) were obtained by site directed mutagenesis using a KRAS4B WT cDNA construct as a template. GP5d cells (ECACC Cat. No. 95090715) were transduced with lentiviral vectors expressing mutant KRAS4B cDNA under control of a CMV promoter. Stably transduced cells were selected using a neomycin selectable marker encoded on the construct.
(§2) To assess PROTAC-mediated degradation of various KRAS mutants, GP5d cells stably transduced with KRAS4B constructs as described above were seeded at 25000 cells per well in 100 μL Dulbecco's Modified Eagle medium (Sigma cat. no. D6429) supplemented with 10% fetal calf serum into white bottom opaque 96 well plates (Perkin Elmer cat no. 5680). Plates were incubated at 37° C., 5% CO2 in a humidified incubator over night to allow the cells to adhere. […] Plates were further incubated at 37° C. for 18 hours. Following incubation, 100 μL per well Promega Nano-Glo HiBit lytic detection reagent mix (Promega Nano-Glo HiBit Lytic Detection System #N3050), prepared according to the manufacturer's instructions in the kit, were added. To allow for adequate cell lysis, plates were incubated on an orbital shaker for 15 min and further incubated 30 min at room temperature. Upon completion of cell lysis, luminescence was measured using an Envision plate reader using the Ultrasensitive Luminescence Protocol for 96 well plates. Luminescence levels were normalized by the values obtained with DMSO-treated samples and plotted as percent of DMSO control. DC50 values were computed using a four parametric logistic model and are reported in nM in Table 65 for representative example (Ex.) compounds of the invention. Dmax values represent the maximal extent of degradation observed and is stated as percent of control (% Ctrl.) treatments in Table 66 for representative example (Ex.) compounds of the invention.

KRAS4B WT = biological target: T2, KRAS4B WT (Homo sapiens, UniProt P01116); assay: HiBit KRAS4B mutant spectrum degradation assay, KRAS4B WT in GP5d cells (18 h); details: KRAS mutation G12WT
T2 construct: HiBit; expressed in transfected cells; host or cells: GP5d cells (ECACC 95090715), stably transduced with lentivirus, CMV promoter
From the text: as §1, §2

GP2D cells = assay: GP2D proliferation assay (120 h) (colorectal cancer, G12D)
Experimental: GP2D Proliferation Assay (120 h) (Colorectal Cancer, G12D)
GP2D cells (ATCC No. CRL-5807) are dispensed into white 384-well plates, flat and white bottom (Perkin Elmer, 6007680) at a density of 500 cells per well in 40 μl DMEM (Sigma, D6429)+1× GlutaMAX (Gibco, 35050038)+10% FCS (fetal calf serum). […] Compounds (10 mM stock in DMSO) are added at logarithmic dose series using the HP Digital Dispenser D300 (Tecan), including DMSO controls and normalizing for added DMSO. For the TO time point measurement, untreated cells are analyzed at the time of compound addition. Plates are incubated for 120 h, and cell viability is measured using CellTiter-Glo luminescent cell viability reagent (Promega product code G7570). Viability (stated as percent of control) is defined as relative luminescence units RLU of each well divided by the RLU of cells in DMSO controls. IC50 values are determined from viability measurements by non-linear regression using a four parameter model.

KRAS4B G13D = biological target: T3, KRAS4B G13D (Homo sapiens, UniProt P01116, G13D); assay: HiBit KRAS4B mutant spectrum degradation assay, KRAS4B G13D in GP5d cells (18 h); details: KRAS mutation G13D
T3 construct: HiBit; expressed in transfected cells; host or cells: GP5d cells (ECACC 95090715), stably transduced with lentivirus, CMV promoter
From the text: as §1, §2

AsPC-1 cells = assay: AsPC-1 CTG proliferation assay (120 h) (pancreatic cancer, G12D); details: Homo sapiens, ASPC1, AsPC-1 proliferation
Experimental: AsPC-1 CTG Proliferation Assay (120 h) (Pancreatic Cancer, G12D)
The CTG assay is designed to measure quantitatively the proliferation of AsPC-1 cells (ATCC […]), using the CellTiter Glow Assay Kit (Promega G7571). Cells are grown in RPMI medium (ATCC) supplemented with Fetal Calf Serum (Life Technologies, Gibco BRL, Cat. No. 10270-106). On “day 0” 2000 AsPC-1 cells are seeded in 60 μL RPMI ATCC+10% FCS+ Penstrep in a 384-well plate, flat and clear bottom (Greiner, PNr. 781091). Cells are then incubated in the plates at 37° C. in a CO2 incubator overnight. On day 1, compounds (10 mM stock in DMSO) are added with the ECHO acoustic liquid handler system (Beckman Coulter), including DMSO controls. Plates are incubated for 120 h, and cell viability is measured using CellTiter-Glo luminescent cell viability reagent (Promega product code G7570). Viability (stated as percent of control) is defined as relative luminescence units RLU of each well divided by the RLU of cells in DMSO controls. IC50 values are determined from viability measurements by non-linear regression using a four-parameter model.

SW620 cells = assay: SW620 cell proliferation assay (colorectal cancer, G12V), 5 days; details: Homo sapiens, SW-620, 120 h
Outline: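 SW620 cells (2000/well, DMEM with 10% FCS) exposed to a logarithmic compound dilution series for 5 days. Viability by CellTiter-Glo luminescence as percent of DMSO control; IC50 from a four-parameter logistic fit.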

KRAS4B G12C = biological target: T4, KRAS4B G12C (Homo sapiens, UniProt P01116, G12C); assay: HiBit KRAS4B mutant spectrum degradation assay, KRAS4B G12C in GP5d cells (18 h); details: KRAS mutation G12C
T4 construct: HiBit; expressed in transfected cells; host or cells: GP5d cells (ECACC 95090715), stably transduced with lentivirus, CMV promoter
From the text: as §1, §2

T4 sequence (P01116 1-188 isoform P01116-2 G12C): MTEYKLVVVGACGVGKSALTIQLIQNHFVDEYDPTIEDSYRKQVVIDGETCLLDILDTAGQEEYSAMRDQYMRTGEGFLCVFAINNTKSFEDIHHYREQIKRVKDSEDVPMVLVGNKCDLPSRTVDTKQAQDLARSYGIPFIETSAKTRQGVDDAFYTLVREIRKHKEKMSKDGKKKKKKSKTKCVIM
T3 sequence (P01116 1-188 isoform P01116-2 G13D): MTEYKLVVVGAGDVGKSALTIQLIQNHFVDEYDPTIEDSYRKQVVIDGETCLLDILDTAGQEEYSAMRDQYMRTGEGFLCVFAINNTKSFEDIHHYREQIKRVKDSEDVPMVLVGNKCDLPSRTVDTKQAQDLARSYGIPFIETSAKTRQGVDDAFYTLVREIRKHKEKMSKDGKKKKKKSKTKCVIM
T1 sequence (P01116 1-188 isoform P01116-2 G12D): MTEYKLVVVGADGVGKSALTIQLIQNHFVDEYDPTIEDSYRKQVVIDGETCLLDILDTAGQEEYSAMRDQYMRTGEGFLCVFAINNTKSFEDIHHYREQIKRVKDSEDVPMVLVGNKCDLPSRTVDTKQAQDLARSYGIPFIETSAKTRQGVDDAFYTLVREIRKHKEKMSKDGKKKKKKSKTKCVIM
T2 sequence (P01116 1-188 isoform P01116-2): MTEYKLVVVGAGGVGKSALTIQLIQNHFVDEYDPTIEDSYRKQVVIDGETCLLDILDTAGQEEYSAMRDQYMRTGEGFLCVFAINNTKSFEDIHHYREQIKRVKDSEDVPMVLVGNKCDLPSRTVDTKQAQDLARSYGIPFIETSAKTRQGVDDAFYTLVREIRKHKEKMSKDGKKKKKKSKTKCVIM

DC50 (KRAS4B G12D) [nM] | Dmax at 18 h (KRAS4B G12D) [% Ctrl.] | DC50 (KRAS4B WT) [nM] | Dmax at 18 h (KRAS4B WT) [% Ctrl.] | IC50 (GP2D cells) [nM] | DC50 (KRAS4B G13D) [nM] | Dmax at 18 h (KRAS4B G13D) [% Ctrl.] | IC50 (AsPC-1 cells) [nM] | IC50 (SW620 cells) [nM] | DC50 (KRAS4B G12C) [nM] | Dmax at 18 h (KRAS4B G12C) [% Ctrl.] | SMILES
1.3 | 96.1 | 0.5 | 98.0 | 7.7 | 0.8 | 89.7 | 42 | 10.5 | 1.2 | 96.2 | Cc1ncsc1-c1ccc([C@@H](NC(=O)[C@@H]2C[C@@H](O)CN2C(=O)[C@H](C(C)C)n2cc(OCCCCN3CCCN(c4nccc(-c5noc([C@@]6(C)CCCc7sc(N)c(C#N)c76)n5)n4)[C@@H](C)C3)nn2)[C@H](C)O)cc1 (single isomer, unassigned) [I-41]
1.3 | 95.8 | 0.5 | 98.1 | 6.6 | 1.1 | 90.4 | 52.1 | 9.4 | 1.1 | 95.6 | Cc1ncsc1-c1ccc([C@@H](NC(=O)[C@@H]2C[C@@H](O)CN2C(=O)[C@H](C(C)C)n2cc(OCCCN3CCCN(c4nccc(-c5noc([C@@]6(C)CCCc7sc(N)c(C#N)c76)n5)n4)[C@@H](C)C3)nn2)[C@H](O)C(C)C)cc1 (single isomer, unassigned) [I-43]
3.3 | 95.8 | 1.7 | 97.5 | 26.1 | 2.7 | 89.7 | 183 | 62.1 | 3.6 | 94.7 | Cc1ncsc1-c1ccc([C@H](CO)NC(=O)[C@@H]2C[C@@H](O)CN2C(=O)[C@H](C(C)C)n2cc(OC(C)CCCN3CCCN(c4nccc(-c5noc([C@@]6(C)CCCc7sc(N)c(C#N)c76)n5)n4)[C@@H](C)C3)nn2)cc1 (some centres unmarked) [I-31]
1.5 | 96.0 | 0.8 | 97.2 | 8.5 | 1.2 | 89.7 | 97.2 | 26.4 | 1.4 | 95.6 | Cc1ncsc1-c1ccc([C@H](CO)NC(=O)[C@@H]2C[C@@H](O)CN2C(=O)[C@H](C(C)C)n2cc(OCCCCN3CCCN(c4nccc(-c5noc([C@@]6(C)CCCc7sc(N)c(C#N)c76)n5)n4)[C@@H](C)C3)nn2)cc1 [I-29]
 |  |  |  | 33.3 |  |  | 169 | 37.1 |  |  | CC(C)C(C(=O)N1C[C@H](O)C[C@H]1C(=O)NCc1ccc(C#N)cc1)c1cc(OCCCCN2CCCN(c3nccc(-c4noc([C@@]5(C)CCCc6sc(N)c(C#N)c65)n4)n3)[C@@H](C)C2)no1 (some centres unmarked) [I-16]
 |  |  |  | 12.6 |  |  | 128 | 28.4 |  |  | Cc1ncsc1-c1ccc([C@H](CCO)NC(=O)[C@@H]2C[C@@H](O)CN2C(=O)[C@H](C(C)C)n2cc(OCCCCN3CCCN(c4nccc(-c5noc([C@@]6(C)CCCc7sc(N)c(C#N)c76)n5)n4)[C@@H](C)C3)nn2)cc1 [I-38]
1.1 | 95 | 0.7 | 95.5 | 5.1 | 1.6 | 93 | 144 | 14.9 | 3.7 | 83 | Cc1ncsc1-c1ccc(CNC(=O)[C@@H]2C[C@@H](O)CN2C(=O)[C@@H](c2cc(OCCCCN3CCCN(c4nccc(-c5noc([C@@]6(C)CCCc7sc(N)c(C#N)c76)n5)n4)[C@@H](C)C3)no2)C(C)C)cc1 (single isomer, unassigned) [I-27]
 |  |  |  |  |  |  | 372 | 53.4 |  |  | Cc1ncsc1-c1ccc(CNC(=O)[C@@H]2C[C@@H](O)CN2C(=O)C(c2cc(OCCCCN3CCCN(c4nccc(-c5cc([C@@]6(C)CCCc7sc(N)c(C#N)c76)on5)n4)[C@@H](C)C3)no2)C(C)C)cc1 (some centres unmarked) [I-4]
1.3 | 96 | 0.8 | 96 |  | 2.5 | 94 | 93.4 | 9.88 | 1.9 | 92.5 | Cc1ncsc1-c1ccc(CNC(=O)[C@@H]2C[C@@H](O)CN2C(=O)[C@@H](c2cc(OCCCN3CCCN(c4nccc(-c5noc([C@@]6(C)CCCc7sc(N)c(C#N)c76)n5)n4)[C@@H](C)C3)no2)C(C)C)cc1 (single isomer, unassigned) [I-25]
 |  |  |  |  |  |  | 1800 | 802 |  |  | Cc1ncsc1-c1ccc(CNC(=O)[C@@H]2C[C@@H](O)CN2C(=O)[C@H](c2cc(OCCCN3CCCN(c4nccc(-c5noc([C@@]6(C)CCCc7sc(N)c(C#N)c76)n5)n4)[C@@H](C)C3)no2)C(C)C)cc1 (single isomer, unassigned) [I-24]
0.8 | 96.1 | 0.4 | 97.8 | 6.4 | 1 | 91.9 | 69 | 18 | 1.2 | 95.6 | Cc1ncsc1-c1ccc([C@H](CO)NC(=O)[C@@H]2C[C@@H](O)CN2C(=O)[C@H](C(C)C)n2cc(OCCCC(C)N3CCCN(c4nccc(-c5noc([C@@]6(C)CCCc7sc(N)c(C#N)c76)n5)n4)[C@@H](C)C3)nn2)cc1 (some centres unmarked) [I-30]
 |  |  |  | 2.9 |  |  | 72 | 13.2 |  |  | Cc1ncsc1-c1ccc([C@H](C)NC(=O)[C@@H]2C[C@@H](O)CN2C(=O)C(C(C)C)n2cc(OCCCCN3CCCN(c4nccc(-c5noc([C@@]6(C)CCCc7sc(N)c(C#N)c76)n5)n4)[C@@H](C)C3)nn2)cc1 (some centres unmarked) [I-28]
 |  |  |  | 9.4 |  |  | 51.4 | 14.5 |  |  | Cc1ncsc1-c1ccc([C@@H](NC(=O)[C@@H]2C[C@@H](O)CN2C(=O)[C@H](C(C)C)n2cc(OCCCCN3CCCN(c4nccc(-c5noc([C@@]6(C)CCCc7sc(N)c(C#N)c76)n5)n4)[C@@H](C)C3)nn2)[C@H](O)C(C)C)cc1 (single isomer, unassigned) [I-45]
